The values that follow come from ChEMBL document CHEMBL3217471, “Prenyltransferase Inhibitors: Treating Human Ailments from Cancer to Parasitic Infections” (Medchemcomm, 2013).

A value given as a limit tells only on which side of the number the result lay.

Experiment [1] concerns the target Geranylgeranyl transferase type I (Homo sapiens, UniProt P49354+P53609). Description: Inhibition of human GGTase1 in human Burkitt lymphoma (Daudi) cell supernatant using [3H]geranylgeranyl.
Experiment [2] concerns the target T1, Protein farnesyltransferase (Homo sapiens, UniProt P49354+P49356). Description: Inhibition of human recombinant FTase using [3H]farnesyldiphosphate. Type of experiment: protein-complex assay.
A short description of experiment [3]: Inhibition of rat RabGGTase using [3H]GGPP by scintillation counting.
For a further experiment, the species on record is Homo sapiens. Description: Selectivity ratio of IC50 for human GGTase 1 in human Burkitt lymphoma (Daudi) cell supernatant to IC50 for human recombinant FTase.
Experiment [4] in a line: Inhibition of human RabGGTase using [3H]GGPP by scintillation counting.
Experiment [5] has as its target T1, Protein farnesyltransferase. In words: Binding affinity to FTase (unknown origin).

Usually IC50 stands for the concentration at which inhibition is half-maximal. For the compound `Cn1cncc1[C@@](N)(c1ccc(Cl)cc1)c1ccc2c(c1)c(-c1cccc(Cl)c1)cc(=O)n2C` [TIPIFARNIB], in experiment [1], the IC50 was greater than 50000 nM. On to `Cn1cncc1CN(Cc1cccc(C#N)c1)c1ccc(C#N)c(-c2cccc3ccccc23)c1`, for which the IC50 in experiment [2] was found to be 0.39 nM. Turning to `O=C(O)C(O)(Cc1cnc2ccccn12)P(=O)(O)O` (single isomer, unassigned; (+)) [(2-HYDROXY-3-IMIDAZO[1,2-A]PYRIDIN-3-YL-2-PHOSPHONOPROPIONIC ACID (ENANTIONMERS)], the IC50 in experiment [3] came out at 1300 nM. For `COc1ccc(S(=O)(=O)N2Cc3cc(-c4ccc(C#N)o4)ccc3N(Cc3cncn3C)C[C@H]2Cc2ccc(OC(=O)NCc3ccccc3)cc2)cc1`, the figures for the IC50 in experiment [2], in experiment [3] and in experiment [1] were greater than 9700 nM, 42 nM and greater than 99500 nM, respectively. With `Cc1ccccc1S(=O)(=O)N1[C@H](C(C)(C)C)C[C@@H](C(=O)O)[C@@H]1c1ccc(Cl)cc1`, the figures for the half-maximal inhibitory concentration (IC50) in experiment [2] and in experiment [1] were greater than 50000 nM and 466 nM, respectively. In addition, the Ratio IC50 in the experiment listed under Homo sapiens turned out to be 100.

Turning to `NC(=O)N1CCC(CC(=O)N2CCC([C@H]3c4ncc(Br)cc4CCc4cc(Cl)cc(Br)c43)CC2)CC1` [LONAFARNIB], the IC50 in experiment [1] was greater than 50000 nM. As for `O=C(O)C(O)(Cc1cccnc1)P(=O)(O)O` (configuration not stated), the figures for the half-maximal inhibitory concentration (IC50) in experiment [4] and in experiment [3] were 600000 nM and 24100 nM, respectively. In the case of `O=C(NCCCn1ccnc1)[C@H]1CN([C@@H]2c3ccc(Cl)cc3CCc3cc(Br)cnc32)CCN1C(=O)NC1CCCCC1`, the IC50 in experiment [2] stood at 0.4 nM. As for `Cc1ccccc1-c1cc(NCc2c[nH]cn2)ccc1C(=O)N[C@@H](CC(C)C)C(=O)O`, the half-maximal inhibitory concentration (IC50) in experiment [2] is 5600 nM; in experiment [1] it was 21 nM. Besides, the Ratio IC50 in the experiment listed under Homo sapiens is greater than 250. On to `CC(C)C[C@H](NC(=O)c1ccc(NC[C@@H](N)CS)cc1-c1ccccc1)C(=O)O`, for which the IC50 in experiment [2] worked out at 25 nM; in experiment [1], 5 nM. For the compound `Cc1nc[nH]c1CN1CCN(C(=O)N[C@@H](CC(C)C)C(=O)O)[C@@H](Cc2ccccc2)C1=O` [GGTI-2418], the IC50 in experiment [2] was 53000 nM; in experiment [1], 9.5 nM. Moreover, the Ratio IC50 in the experiment listed under Homo sapiens is greater than 5000. In experiment [1], `CSCC[C@H](NC(=O)c1ccc(NC[C@@H](N)CS)cc1-c1ccccc1)C(=O)O` returned an IC50 of 50 nM. Regarding `N#Cc1ccc2cc1Oc1ccc3c(c1)[C@@H](CCC3)N1CC[C@@H](NCc3cncn3C2)C1=O` [(1R,5R)-30-OXO-19-OXA-2,6,10,12-TETRAAZAHEXACYCLO[18.6.2.1^{2,5}.1^{14,18}.0^{8,12}.0^{23,27}]TRIACONTA-8,10,14(29),15,17,20(28),21,23(27)-OCTAENE-17-CARBONITRILE (STRUCTURAL MIX)], the IC50 in experiment [2] was found to be 0.02 nM. Take `COc1ccc(S(=O)(=O)N2Cc3cc(C#N)ccc3N(Cc3cncn3C)C[C@H]2Cc2ccccc2)cc1`: the 50% inhibitory concentration (IC50) in experiment [2] is 6 nM; in experiment [3], 724 nM; in experiment [1] it was greater than 99500 nM.

By Kd is commonly meant the constant that tells how readily two partners part at equilibrium. A high value points to a looser complex. In the case of `CC(C)=CCC/C(C)=C/CC/C(C)=C/CO[P@@](=O)(O)OP(=O)(O)O` [FARNESYL DIPHOSPHATE], binding in experiment [5] was characterised by a dissociation constant (Kd) of 2 nM. Consider `CC(C)[C@@H](CO[C@@H](Cc1ccccc1)C(=O)N[C@@H](CCS(C)(=O)=O)C(=O)O)NC[C@@H](N)CS`, for which the IC50 was found to be 1.8 nM in experiment [2] and 50 nM in experiment [1]. `O=C(O)C(Cl)(Cc1cccnc1)P(=O)(O)O` (configuration not stated) returned an IC50 in experiment [3] of 16400 nM. `N#Cc1ccc2c(c1)CN(S(=O)(=O)c1cccs1)[C@@H](Cc1ccccc1)CN2Cc1ncc[nH]1`: the IC50 in experiment [2] was 1.35 nM; in experiment [1], greater than 1000 nM.
